Measurements as given in patent US8557840B2, “Herbicidal compounds” (Syngenta Limited, priority 2008, dated 2013).

Tests used:
Type in all cases: in vivo
Amaranthus retroflexus = assay: Herbicidal action, post-emergence, seed trays in climatic chamber (Example B1); conditions: 1000 g/ha, evaluated after 9 days, 10=total damage to plant, 0=no damage to plant
Procedure: (§1) Seeds of a variety of test species were sown in sterilised standard soil in seed trays each having 96 cells. […] The plants were grown in the climatic chamber after application at (24/19° C., day/night; 13 hours light; 50-60% humidity) and watered twice daily. After 9 days until the test was evaluated (10=total damage to plant, 0=no damage to plant)

Solanum nigrum = assay: as above; conditions: 1000 g/ha, evaluated after 9 days, 10=total damage to plant, 0=no damage to plant
Procedure: as §1

Stellaria media = assay: as above; conditions: 1000 g/ha, evaluated after 9 days, 10=total damage to plant, 0=no damage to plant
Procedure: as §1

Nasturtium officinale = assay: as above; conditions: 1000 g/ha, evaluated after 9 days, 10=total damage to plant, 0=no damage to plant
Procedure: as §1

test plants = assay: Herbicidal action, post-emergence (Example B2), all test plants, result in words; conditions: same protocol as Example B2, post-emergence
Procedure: Seeds of a variety of test species were sown in standard soil in pots. After 8 days cultivation (post-emergence) under controlled conditions in a glasshouse (at 24/16° C., day/night; 14 hours light; 65% humidity), the plants were sprayed with an aqueous spray solution derived from the formulation of the technical active ingredient in acetone/water (50:50) solution containing 0.5% Tween 20 (polyoxyethelyene sorbitan monolaurate, CAS RN 9005-64-5). The test plants were then grown in a glasshouse under controlled conditions in a glasshouse (at 24/16° C., day/night; 14 hours light; 65% humidity) and watered twice daily. After 13 days, the test was evaluated (10=total damage to plant; 0=no damage to plant).

Row | SMILES | AMARE damage to plant (Amaranthus retroflexus) | SOLNI damage to plant (Solanum nigrum) | STEME damage to plant (Stellaria media) | NAAOF damage to plant (Nasturtium officinale) | damage to the test plants (test plants)
1 | Cn1c(=O)c(-c2c(F)ccc(F)c2Cl)c(O)c2ncccc21 [A3] | 6 | 3 | 3 | 4 | 
2 | CC(C)C(=O)Oc1c(-c2c(F)ccc(F)c2Cl)c(=O)n(C)c2cccnc12 [A4] | 5 | 4 | 4 | 6 | 
3 | Cn1c(=O)c(-c2c(F)ccc(F)c2Cl)c(OC(=O)C(C)(C)C)c2ncccc21 [A5] | 0 | 7 | 0 | 3 | 
4 | CCc1cc(C)cc(CC)c1-c1c(OC(=O)C(C)C)c2ncccc2n(C)c1=O [A6] | 3 | 6 | 8 | 6 | 
5 | O=c1[nH]c2cccnc2c(O)c1-c1cccnc1 [A7] | 0 | 0 | 6 | 2 | 
6 | CCn1c(=O)c(-c2c(F)ccc(F)c2Cl)c(OC(=O)C(C)(C)C)c2cnccc21 [B1, 2,2-dimethyl-propionic acid 3-(2-chloro-3,6-difluoro-phenyl)-1-ethyl-2-oxo-1,2-dihydro-[1,6]naphthyridin-4-yl ester] |  |  |  |  | little or no damage
7 | Cc1cc2c(c(Cl)n1)c(OC(=O)C(C)(C)C)c(-c1c(F)ccc(F)c1Cl)c(=O)n2C [B5] |  |  |  |  | little or no damage
8 | Cn1c(=O)c(-c2c(F)ccc(F)c2Cl)c(O)c2cccnc21 [D5] | 7 | 0 | 7 | 6 | 
9 | CCc1cc(C)cc(CC)c1-c1c(OC(=O)C(C)C)c2cccnc2n(C)c1=O [D6, isobutyric acid 3-(2,6-diethyl-4-methyl-phenyl)-1-methyl-2-oxo-1,2-dihydro-[1,8]naphthyridin-4-yl ester] | 0 | 0 | 2 | 0 | 
10 | CC(C)C(=O)Oc1c(-c2c(F)ccc(F)c2Cl)c(=O)n(C)c2ncccc12 [D7] | 6 | 0 | 3 | 0 | 
11 | CCc1cc(C)cc(CC)c1-c1c(OC(=O)C(C)(C)C)c2cccnc2n(C)c1=O [D8] | 0 | 0 | 2 | 3 | 
12 | Cn1c(=O)c(-c2c(F)ccc(F)c2Cl)c(OC(=O)C(C)(C)C)c2cccnc21 [D9] | 3 | 0 | 2 | 2 | 
13 | Cn1c(=O)c(-c2c(F)ccc(F)c2Cl)c(OC(=O)C(C)(C)C)c2cc(Br)cnc21 [D13, 2,2-dimethyl-propionic acid 6-bromo-3-(2-chloro-3,6-difluoro-phenyl)-1-methyl-2-oxo-1,2-dihydro-[1,8]naphthyridin-4-yl ester] |  |  |  |  | little or no damage
14 | Cc1cc(Cl)c2c(OC(=O)C(C)(C)C)c(-c3c(F)ccc(F)c3Cl)c(=O)n(C)c2n1 [D19] |  |  |  |  | little or no damage
15 | CCc1cc(C)cc(CC)c1-c1c(O)c2cccnc2n(C)c1=O [D20, 3-(2,6-diethyl-4-methyl-phenyl)-4-hydroxy-1-methyl-1H-[1,8]naphthyridin-2-one] | 0 | 0 | 5 | 5 | 
16 | CC(C)(C)C(=O)Oc1c(-c2c(F)ccc(F)c2Cl)c(=O)[nH]c2ncncc12 [E1] |  |  |  |  | little or no damage
17 | O=c1[nH]c2nncnc2c(O)c1-c1c(F)ccc(F)c1Cl [E4] | 2 | 4 | 0 | 0 | 
